Results reported in patent US20080214555A1 (priority 2007, published 2008).
Read-outs that look alike come from different tables or passages of the source.

Key:
[1] = test system: patients with non-ST elevation acute coronary syndrome
[2] = background statement; cited from earlier work
[3] = test system: patients with non-ST elevation acute coronary syndrome; test: MERLIN-TIMI 36: Seattle Angina Questionnaire scores at 4 months; type: in vivo, human; conditions: ITT
Text: The MERLIN-TIMI 36 secondary efficacy endpoint (ITT) Seattle Angina Questionnaire scores at 4 months for anginal frequency scale are shown in Table 16 below, and scores for physical limitation scale are shown in Table 17 below.

[4] = 30 days, all patients dosed, n = 3268
[5] = 60 days, all patients dosed, n = 3268
[6] = 360 days, all patients dosed, n = 3268
[7] = 540 days, all patients dosed, n = 3268
[8] = endpoint death or CV hospitalization, all patients dosed, n = 3268
[9] = ranolazine vs placebo, all patients dosed

In the case of COc1ccccc1OCC(O)CN1CCN(CC(=O)Nc2c(C)cccc2C)CC1 (racemic) [Ranolazine, (±)-N-(2,6-dimethylphenyl)-4-[2-hydroxy-3-(2-methoxyphenoxy)-propyl]-1-piperazineacetamide], the “Incidence (Kaplan-Meier estimate) of death from any cause” value (from here on “Incidence … from any cause”) [1, 4] is reported as 1.8%, the “Incidence (Kaplan-Meier estimate) of death or CV hospitalization” value (“Incidence … of death or CV hospitalization” for short) [1, 4] is reported as 9.2% and the “Incidence … from any cause” value [1, 5] is reported as 2.2%. For the same molecule, the “Incidence … of death or CV hospitalization” value [1, 5] was 15.0%, the “Incidence … from any cause” value ([1]; 180 days, all patients dosed, n = 3268) was 3.4% and the “Incidence … from any cause” value [1, 6] was 5.3%. The “Incidence … of death or CV hospitalization” value [1, 6] was 32.8%, the “Incidence … from any cause” value [1, 7] was 7.0% and the “Incidence … of death or CV hospitalization” value [1, 7] was 37.6%. For the same molecule, the Symptomatic documented arrhythmias ([1]; Example 7) was 3.0%, the “Clinically reported sudden cardiac death, number” value ([1]; Example 8) was 56 and the “Pts with events: death from any cause (safety endpoint)” value ([1]; all patients dosed, n = 3268) was 172. For the same molecule, the “Pts with events: first occurrence of death or CV hospitalization (safety endpoint)” value ([1]; all patients dosed, n = 3268) was 1037, the “Symptomatic documented arrhythmias: Bradyarrhythmias, %” value ([1]; all patients dosed, n = 3268) was 1.0% and the “Symptomatic documented arrhythmias: Bradyarrhythmias, number” value ([1]; all patients dosed, n = 3268) was 34. For the same molecule, the “Symptomatic documented arrhythmias: Cardiac arrest NOS, %” value ([1]; all patients dosed, n = 3268) was 0.3%, the “Symptomatic documented arrhythmias: Cardiac arrest NOS, number” value ([1]; all patients dosed, n = 3268) was 10 and the “Symptomatic documented arrhythmias: Pts. with Arrhythmias - Overall, %” value ([1]; all patients dosed, n = 3268) was 3.0%. The “Symptomatic documented arrhythmias: Pts. with Arrhythmias - Overall, number” value ([1]; all patients dosed, n = 3268) was 99, the “Symptomatic documented arrhythmias: Supraventricular arrhythmias, %” value ([1]; all patients dosed, n = 3268) was 1.2% and the “Symptomatic documented arrhythmias: Supraventricular arrhythmias, number” value ([1]; all patients dosed, n = 3268) was 38. The “Symptomatic documented arrhythmias: Ventricular arrhythmias, %” value ([1]; all patients dosed, n = 3268) was 0.7%, the “Symptomatic documented arrhythmias: Ventricular arrhythmias, number” value ([1]; all patients dosed, n = 3268) was 22 and the “Endpoint-defining events: CV hospitalization, % of pts with events” value [1, 8] was 89.3%. For the same molecule, the “Endpoint-defining events: CV hospitalization, number” value [1, 8] was 926, the “Endpoint-defining events: Death, % of pts with events” value [1, 8] was 10.7% and the “Endpoint-defining events: Death, number” value [1, 8] was 111. The “HR, total mortality” value ([1]; ranolazine vs placebo, 95% CI 0.80-1.22) was 0.99, the “Relative risk (SE), death from any cause” value [1, 9] was 0.988 (0.11) and the “Relative risk (SE), death or CV hospitalization” value [1, 9] was 0.981 (0.04). The Symptomatic documented arrhythmias ([1]; women) was 2.6%, the “Prolonging the QTc interval” value [2] was 2 to 5 ms and the “Seattle Angina Questionnaire physical limitation scale score, 25th percentile-75th percentile” value ([3]; N 2339) was 55.6-94.4. For the same molecule, the “Seattle Angina Questionnaire physical limitation scale score, Mean (SEM)” value ([3]; N 2339) was 72.8 (0.5), the “Seattle Angina Questionnaire physical limitation scale score, Median” value ([3]; N 2339) was 77.8 and the “Seattle Angina Questionnaire physical limitation scale score, Min-Max” value ([3]; N 2339) was 0-100. For the same molecule, the “Seattle Angina Questionnaire anginal frequency scale score, 25th percentile-75th percentile” value ([3]; N 2558) was 80-100, the “Seattle Angina Questionnaire anginal frequency scale score, Mean (SEM)” value ([3]; N 2558) was 84.3 (0.4) and the “Seattle Angina Questionnaire anginal frequency scale score, Median” value ([3]; N 2558) was 100. The “Seattle Angina Questionnaire anginal frequency scale score, Min-Max” value ([3]; N 2558) was 0-100.
